Earlier results as cited in patent US20090012008A1, “Pharmaceutical Composition for Photodynamic Therapy and a Method for Treating Oncological Diseases by Using Said Composition” (priority 2005, published 2009).

Assays:
[1] = tested on: keratinocytes
[2] = tested on: fibroblasts
[3] = tested on: tumor cells of the HeLa S3 line; conditions: HeLa S3, in vitro

Compound	effect on viability and proliferation rate [1]	effect on viability and proliferation rate [2]	cytotoxic activity [3]
c12c3c4c5c1c1c6c7c2c2c8c3c3c9c4c4c%10c5c5c1c1c6c6c%11c7c2c2c7c8c3c3c8c9c4c4c9c%10c5c5c1c1c6c6c%11c2c2c7c3c3c8c4c4c9c5c1c1c6c2c3c41 [fullerene C60]	no effect	no effect	
fullerocyclopentane			manifest only upon irradiation with light
